According to article PMC4008379, “Bioenergetics and Gene Silencing Approaches for Unraveling Nucleotide Recognition by the Human EIF2C2/Ago2 PAZ Domain” (PLoS ONE, 2014):
Where two headings read alike, the source gives them in different places.

Legend:
Assay type in all cases: binding
[1] = molecular target: T1, EIF2C2/Ago2 PAZ domain (Ago2PAZ) (Homo sapiens, UniProt Q9UKV8); assay: ITC displacement (UMP titrated into dAMP-saturated protein); conditions: 25 mM potassium phosphate pH 7; 12°C; competition with UMP; unreliable (estimated, direct titration ND)
T1 construct: PAZ domain, residues 226-379, hexahistidine tag (pQE30, BamHI/HindIII), tag removal not mentioned; expressed in E. coli; Talon and Sephacryl S200HR
T1 sequence (Q9UKV8 227-379): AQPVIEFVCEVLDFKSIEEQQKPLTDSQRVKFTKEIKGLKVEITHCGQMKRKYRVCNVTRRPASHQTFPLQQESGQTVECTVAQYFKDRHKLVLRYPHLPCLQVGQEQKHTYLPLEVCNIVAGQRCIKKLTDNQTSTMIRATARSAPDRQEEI
From the text: ITC displacement (UMP titrated into dAMP-saturated protein) on EIF2C2/Ago2 PAZ domain (Ago2PAZ)

[2] = molecular target: T1, EIF2C2/Ago2 PAZ domain (Ago2PAZ); assay: isothermal titration calorimetry
[3] = molecular target: T1, EIF2C2/Ago2 PAZ domain (Ago2PAZ); assay: ITC displacement (UMP titrated into AMP-saturated protein); conditions: 25 mM potassium phosphate pH 7; 12°C; competition with UMP; unreliable (estimated, direct titration ND)
From the text: ITC displacement (UMP titrated into AMP-saturated protein) on EIF2C2/Ago2 PAZ domain (Ago2PAZ)

[4] = molecular target: T1, EIF2C2/Ago2 PAZ domain (Ago2PAZ); assay: ITC displacement (UMP titrated into dCMP-saturated protein); conditions: 25 mM potassium phosphate pH 7; 12°C; competition with UMP; unreliable (estimated, direct titration ND)
From the text: ITC displacement (UMP titrated into dCMP-saturated protein) on EIF2C2/Ago2 PAZ domain (Ago2PAZ)

Nc1ncnc2c1ncn2[C@H]1C[C@H](O)[C@@H](COP(=O)(O)O)O1 [dAMP]
Estimated KB / M^-1 [1]: 72 M⁻¹

Nc1nc2c(ncn2[C@@H]2O[C@H](COP(=O)(O)O)[C@@H](O)[C@H]2O)c(=O)[nH]1 [GMP]
Kd ([2]; read-out: Kd /): 22 µM

Nc1ncnc2c1ncn2[C@@H]1O[C@H](COP(=O)(O)O)[C@@H](O)[C@H]1O [AMP]
Estimated KB / M^-1 [3]: 143 M⁻¹

Cc1cn([C@H]2C[C@H](O)[C@@H](COP(=O)(O)O)O2)c(=O)[nH]c1=O [TMP]
Kd ([2]; read-out: Kd /): 232 µM

Cc1cn([C@@H]2O[C@H](COP(=O)(O)O)[C@@H](O)[C@H]2O)c(=O)[nH]c1=O [compound 2, 5-Methyluridine-5′-O-monophosphate]
Kd ([2]; read-out: Ka (converted)): 58.8 µM

Nc1nc2c(ncn2[C@H]2C[C@H](O)[C@@H](COP(=O)(O)O)O2)c(=O)[nH]1 [dGMP]
Kd ([2]; read-out: Kd /): 40 µM

Nc1ccn([C@H]2C[C@H](O)[C@@H](COP(=O)(O)O)O2)c(=O)n1 [dCMP]
Estimated KB / M^-1 [4]: 155 M⁻¹

O=c1ccn([C@@H]2O[C@H](COP(=O)(O)O)[C@@H](O)[C@H]2O)c(=O)[nH]1 [UMP]
Kd ([2]; 25 mM potassium phosphate pH 7, one-set-of-sites model, fitted n 2.2, read-out: Kd /): 15 µM

Nc1ccn([C@@H]2O[C@H](COP(=O)(O)O)[C@@H](O)[C@H]2O)c(=O)n1 [CMP]
Kd ([2]; read-out: Kd /): 40 µM
